# Test results reported in patent US20240382485A1, “METHODS OF TREATING ABNORMAL CELL GROWTH” (Verastem, Inc., priority 2021, published 2024).
# How the values were obtained:
# Assay in all cases: 2D proliferation assay (CellTiter-Glo) with synergy analysis
# H2122 NSCLC = type: cell-based, human; settings: VS-6766+doxycycline, H2122, FIG. 4; Bliss, Loewe, HSA and ZIP analysis
# Procedure: (§1) Anti-proliferative effects of an antibiotic agent such as doxycycline (e.g., 5 or 10 μM) or minocycline (e.g., 1.25 μM) in combination with VS-6766 (e.g., 40 nM) or defactinib (e.g., 1 μM) were tested in 2D culture in 3 different human tumor cell lines.
# (§2) Human cancer cell lines were grown in 2D conditions. Briefly, cells were seeded in 100 μL of growth medium. After an overnight incubation (17-22 hours), cells were treated with VS-6766+/−minocycline or doxycycline for 7 days. Alternatively, cells were treated with defactinib+/−doxycycline for 7 days. Cell viability was measured using the cell viability CellTiter-Glo assay.
# (§3) Raw data and metadata files were processed with a custom R-script for single agent and combination activity. Bliss, Loewe, Highest Single Agent (HSA) and ZIP synergy analysis were performed to generate a composite synergy score (e.g., see Malyutina A et al, “Drug combination sensitivity scoring facilitates the discovery of synergistic and efficacious drug combinations in cancer,” PLOS Computational Biology 15 (5): e1006752). […]
# (§4) For example, consider that drug 1 at concentration x1 and drug 2 at concentration x2 were combined to produce the inhibition effect of yc, while their respective single drug effects were y1(x1) and y2(x2). The synergy score was calculated as the difference between yc and the expected effect ye if there is no synergy. […]
# TOV21G ovarian cancer = type: cell-based, human; settings: VS-6766+doxycycline, FIG. 4, Bliss, Loewe, HSA and ZIP analysis
# Procedure: as §1, §2, §3, §4
# [1] = system: H358 human non-small cell lung cancer (NSCLC) cells; type: cell-based; settings: for effect of doxycycline or minocycline on anti-tumor potency: 2D culture, 7 days, CellTiter-Glo; for synergy with antibiotics in the inhibition of tumor cell proliferation: with doxycycline or minocycline, H358, FIG. 3, Bliss, Loewe, HSA and ZIP analysis
# Procedure: as §1, §2
# Raw data and metadata files were processed with a custom R-script for single agent and combination activity. Bliss, Loewe, Highest Single Agent (HSA) and ZIP synergy analysis were performed to generate a composite synergy score (e.g., see Malyutina A et al, “Drug combination sensitivity scoring facilitates the discovery of synergistic and efficacious drug combinations in cancer,” PLOS Computational Biology 15 (5): e1006752). Summary graphics and reports were saved for visualization and further analysis.
# For example, consider that drug 1 at concentration x1 and drug 2 at concentration x2 were combined to produce the inhibition effect of yc, while their respective single drug effects were y1(x1) and y2(x2). The synergy score was calculated as the difference between yc and the expected effect ye if there is no synergy. Each synergy scoring takes a different model for ye: • 1. HSA: ye is the maximal single drug effect, defining
# Dose-response matrices were used to assess anti-proliferative effects of the combination of VS-6766+/−minocycline or doxycycline, and the combination of defactinib+/−doxycycline. […] H358 human non-small cell lung cancer (NSCLC) cells were grown in 2D conditions. Cells were treated with VS-6766+/−minocycline or doxycycline for 7 days. Alternatively, cells were treated with defactinib+/−doxycycline for 7 days. Cell viability was measured using the cell viability CellTiter-Glo assay.
# Synergy scores were calculated using a combination of 4 different methods (Bliss, Loewe, HSA and ZIP). Human cancer cell lines were run in a CTG proliferation assay. Raw data and metadata files were processed with a custom R-script for single agent and combination activity. Bliss, Loewe, Highest Single Agent (HSA) and ZIP synergy analysis were performed to generate a composite synergy score. The example used in this figure is VS-6766+doxycycline in H358 cells.
# H358 human NSCLC cells were run in a CTG proliferation assay. Raw data and metadata files were processed with a custom R-script for single agent and combination activity. Bliss, Loewe, Highest Single Agent (HSA) and ZIP synergy analysis were performed to generate a composite synergy score. […]
SMILES,synergy in the inhibition of tumor cell proliferation (H2122 NSCLC),synergy in the inhibition of tumor cell proliferation (TOV21G ovarian cancer),effect of doxycycline or minocycline on anti-tumor potency [1],synergy with antibiotics in the inhibition of tumor cell proliferation [1]
CNS(=O)(=O)Nc1nccc(Cc2c(C)c3ccc(Oc4ncccn4)cc3oc2=O)c1F [VS-6766],synergistic effect,synergistic effect,increased anti-tumor potency,synergistic
"CNC(=O)c1ccc(Nc2ncc(C(F)(F)F)c(NCc3nccnc3N(C)S(C)(=O)=O)n2)cc1 [defactinib, reference compound]",–,–,increased anti-tumor potency,synergistic
